From PMC9120478 (Nature Communications, 2022)
Changes are numbered by the printed parent chain. Values joined by “and” are separate entries in the source; they are usually repeats but may differ in a detail not shown here. Equal entries are not always repeated.

What was measured:
Type in all cases: cell-based
F666A mutant TRPV3 = target: T1, F666A mutant TRPV3 (Mus musculus, UniProt Q8K424, F666A); test: Fura-2 ratiometric Ca2+ uptake, inhibition of 2-APB-evoked response; settings: n = 3
T1 construct: expressed in transfected cells; host or cells: HEK 293 S GnTI- cells (baculovirus transduction)
T1 sequence (Q8K424 1-791 F666A): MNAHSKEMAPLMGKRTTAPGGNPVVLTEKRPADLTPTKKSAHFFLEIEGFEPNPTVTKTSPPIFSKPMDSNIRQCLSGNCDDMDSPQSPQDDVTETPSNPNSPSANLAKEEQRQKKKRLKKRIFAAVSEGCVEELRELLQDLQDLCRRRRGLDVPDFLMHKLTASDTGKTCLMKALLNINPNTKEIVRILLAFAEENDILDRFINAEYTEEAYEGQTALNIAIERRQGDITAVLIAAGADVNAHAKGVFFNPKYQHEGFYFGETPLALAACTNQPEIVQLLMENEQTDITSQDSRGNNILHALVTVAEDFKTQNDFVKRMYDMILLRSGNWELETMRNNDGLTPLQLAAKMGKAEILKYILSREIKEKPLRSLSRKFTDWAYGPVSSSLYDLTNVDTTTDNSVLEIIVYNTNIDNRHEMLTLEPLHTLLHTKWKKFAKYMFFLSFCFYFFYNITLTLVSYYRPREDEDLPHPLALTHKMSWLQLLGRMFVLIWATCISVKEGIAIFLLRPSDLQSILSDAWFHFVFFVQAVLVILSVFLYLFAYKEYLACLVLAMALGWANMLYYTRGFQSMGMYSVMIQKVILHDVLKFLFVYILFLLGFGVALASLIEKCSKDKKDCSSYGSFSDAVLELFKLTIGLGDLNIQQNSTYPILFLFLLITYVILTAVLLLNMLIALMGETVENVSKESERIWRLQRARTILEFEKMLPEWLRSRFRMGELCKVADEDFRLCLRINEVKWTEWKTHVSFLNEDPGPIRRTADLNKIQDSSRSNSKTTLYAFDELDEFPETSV
Protocol: (§1) GFP-free C-terminally strep-tagged wild-type TRPV3, TRPV3-Y564A, TRPV3-Y594A, TRPV3-F633A, TRPV3-I663W, and TRPV3-F666A were expressed in HEK 293 S GnTI^− cells as previously described[41],[42],[53]. In short, 48 h after transduction, 1-ml aliquots of cell suspension were collected by centrifugation at 550 g for 5 min using an Eppendorf 5424 centrifuge. The cells were resuspended in the pre-warmed modified HEPES-buffered saline (HBS) containing 118 mM NaCl, 4.8 mM KCl, 1 mM MgCl2, 5 mM D-glucose, and 10 mM HEPES pH 7.4 and 5 μg/ml Fura-2 AM (Thermo Fisher Scientific) and incubated for 45 min at 37 °C. The Fura-2-loaded cells were then centrifuged for 5 min at 550 g, resuspended in the pre-warmed, modified HBS and incubated again for 30 min at 37 °C in the dark. The cells were subsequently pelleted and washed twice in the modified HBS. The washed cell pellets were kept on ice in the dark before taking an aliquot for fluorescence measurements. […] We used the lower CaCl2 concentration than before[42],[28] (2.5 mM) to minimize non-specific effects, which often appeared as a drift in the Fura-2 signal at high Ca^2+ concentration, presumably due to cell death as a result of calcium overload. Fluorescence measurements were conducted using a QuantaMaster 40 spectrofluorometer (Photon Technology International) at room temperature in a quartz cuvette under constant stirring. After 60 s since the beginning, the recording was paused and 2-APB was added. After the addition of 2-APB, the recording was continued for the additional 140 s. Changes in intracellular Ca^2+ were measured by taking the ratio of fluorescence emitted at 510 nm at the excitation wavelength of 340 nm and 380 nm. […] The data were processed using Origin 9.0 (OriginLab) software.

wild-type mouse TRPV3 = target: T2, wild-type mouse TRPV3 (Mus musculus, UniProt Q8K424); test: as above
T2 construct: expressed in transfected cells; host or cells: HEK 293 S GnTI- cells (baculovirus transduction)
T2 sequence (Q8K424 1-791): T1 sequence (Q8K424 1-791 F666A) with A666F
Protocol: as §1

TRPV3 = target: T3, TRPV3 (Mus musculus, UniProt Q8K424); test: 2-APB concentration dependence of TRPV3 activation at two dyclonine concentrations (Schild plot); settings: for TRPV3 activation by 2-APB in the presence of dyclonine (Schild plot source data): listed as Dyc
T3 construct: expressed in transfected cells; host or cells: HEK 293 S GnTI- cells (baculovirus transduction)
T3 sequence (Q8K424 1-791): T1 sequence (Q8K424 1-791 F666A) with A666F
Protocol: as §1

CCCCOc1ccc(C(=O)CCN2CCCCC2)cc1 [dyclonine, 1-(4-butoxyphenyl)-3-piperidin-1-ylpropan-1-one]
IC50 (F666A mutant TRPV3; HEK 293 GnTI- cells, 200 µM 2-APB after pre-incubation with inhibitor): 673 ± 37 µM | nHill of inhibition curve, F666A (F666A mutant TRPV3; logistic fit): 2.07 ± 0.08 | nHill of inhibition curve (wild-type mouse TRPV3; logistic fit, 200 µM 2-APB, n = 7): 1.61 ± 0.27 | IC50 (wild-type mouse TRPV3; read-out: IC50, inhibition of TRPV3-mediated Ca2+ uptake): 29.8 ± 5.3 µM | TRPV3 activation by 2-APB in the presence of dyclonine (Schild plot source data) (TRPV3; 60 mM Dyc, 2-APB Conc 20, single experiments): 0.167 and 0.154 and 0.168 | TRPV3 activation by 2-APB in the presence of dyclonine (Schild plot source data) (TRPV3; 60 mM Dyc, 2-APB Conc 40, single experiments): 0.144 and 0.213 and 0.179 | TRPV3 activation by 2-APB in the presence of dyclonine (Schild plot source data) (TRPV3; 60 mM Dyc, 2-APB Conc 80, single experiments): 0.244 and 0.241 and 0.22 | TRPV3 activation by 2-APB in the presence of dyclonine (Schild plot source data) (TRPV3; 60 mM Dyc, 2-APB Conc 160, single experiments): 0.294 and 0.283 | TRPV3 activation by 2-APB in the presence of dyclonine (Schild plot source data) (TRPV3; 2-APB Conc 10, single experiments): 0.194 and 0.175 and 0.157 | TRPV3 activation by 2-APB in the presence of dyclonine (Schild plot source data) (TRPV3; 2-APB Conc 20, single experiments): 0.323 and 0.34 and 0.318 | TRPV3 activation by 2-APB in the presence of dyclonine (Schild plot source data) (TRPV3; 2-APB Conc 40, single experiments): 0.542 and 0.419 and 0.487 | TRPV3 activation by 2-APB in the presence of dyclonine (Schild plot source data) (TRPV3; 2-APB Conc 80, single experiments): 0.804 and 0.786 and 0.853 | competition between 2-APB and dyclonine (Schild plots) (TRPV3; 10 and 60 μM dyclonine): lack of obvious competition
